Experimental findings from patent publication US4661502A (priority 1983, dated 1987) are described below.

The subject of series [1] is male Wistar rats. The note with it: rat, in vivo.
Series [2] concerns Hypercholesterolemic Rats. Details: species or system Wistar rats. The note with it: rat, in vivo.

In the case of `CN(C)C(=O)Oc1cccc([N+](C)(C)C)c1` [Neostigmine bromide], the “Acute toxicity: state of the rats after administration” value in series [1] was “all the rats were dead”. In series [2], this compound had an LDL-cholesterol of 76.6 ± 10.7 mg % and a Total cholesterol of 131.2 ± 11.8 mg %.
